# Experimental data from ChEMBL document CHEMBL1127793 (J Med Chem, 1994).
# Calls of active or inactive are those of the source. The rule behind the calls is not given here.
# Experiments:
# Cavia porcellus = species on record: Cavia porcellus; test: Tested for the inhibitory activity against neutrophil infiltration in response to LTB4 in guinea pig; format: functional
# Homo sapiens [1] = species on record: Homo sapiens; test: Tested for inhibitory activity against LTB4 induced chemotaxis of human neutrophils; format: functional
# Homo sapiens [2] = species on record: Homo sapiens; test: Tested for inhibitory activity against LTB4 induced up-regulation of CD11b on human neutrophils; format: functional
# [3] = biological target: Leukotriene B4 receptor 1 (Mus musculus, UniProt O88855); test: Tested for antagonistic activity in mouse spleen membrane against LTB4 receptor; format: functional, cell membranes
# Chain of Leukotriene B4 receptor 1 (O88855 whole entry): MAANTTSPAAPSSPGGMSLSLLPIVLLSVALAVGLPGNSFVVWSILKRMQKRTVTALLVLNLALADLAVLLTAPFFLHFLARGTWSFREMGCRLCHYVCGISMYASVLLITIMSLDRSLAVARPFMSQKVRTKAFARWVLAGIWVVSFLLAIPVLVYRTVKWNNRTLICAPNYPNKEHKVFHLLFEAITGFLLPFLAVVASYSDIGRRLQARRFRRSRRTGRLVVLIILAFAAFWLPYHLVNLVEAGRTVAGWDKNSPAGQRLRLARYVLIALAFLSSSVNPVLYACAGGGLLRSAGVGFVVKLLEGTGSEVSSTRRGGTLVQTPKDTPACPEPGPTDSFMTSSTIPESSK
# Mus musculus = test: Oral administration of compound in 0.5% methyl cellulose inhibits the LTB4-induced response; format: functional
# [4] = biological target: T1, Prostaglandin G/H synthase 2 (Ovis aries) (UniProt P79208); test: Tested for inhibition of the Prostaglandin G/H synthase at 10 uM conc.; No inhibition
# T1 sequence (whole entry): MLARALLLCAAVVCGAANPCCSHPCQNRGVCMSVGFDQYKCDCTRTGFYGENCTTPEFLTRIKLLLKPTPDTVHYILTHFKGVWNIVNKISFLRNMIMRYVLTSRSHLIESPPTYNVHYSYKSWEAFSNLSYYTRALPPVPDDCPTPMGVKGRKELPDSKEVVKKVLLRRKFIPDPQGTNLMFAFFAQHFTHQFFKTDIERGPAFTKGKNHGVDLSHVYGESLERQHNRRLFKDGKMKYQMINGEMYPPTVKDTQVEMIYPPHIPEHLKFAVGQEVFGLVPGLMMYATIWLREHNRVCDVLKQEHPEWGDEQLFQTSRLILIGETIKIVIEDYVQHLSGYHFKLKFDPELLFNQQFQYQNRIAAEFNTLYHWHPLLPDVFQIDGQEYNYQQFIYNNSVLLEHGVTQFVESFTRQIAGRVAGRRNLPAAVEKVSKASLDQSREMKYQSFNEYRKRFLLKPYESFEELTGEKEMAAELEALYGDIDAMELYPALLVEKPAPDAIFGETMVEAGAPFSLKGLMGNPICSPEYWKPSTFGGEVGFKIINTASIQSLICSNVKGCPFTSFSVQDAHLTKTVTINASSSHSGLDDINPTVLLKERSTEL
structure (smiles),measurement,setting,value
O=C(O)C1(c2ccc3c(c2)OC[C@H](Cc2ccc(-c4ccccc4)cc2)[C@H]3O)CCCC1,ED50,Cavia porcellus,0.26 mg/kg
same,IC50,Homo sapiens [1],5.2 nM
same,IC50,Homo sapiens [2],430 nM
same,IC50,[3],30.3 nM
same,ED50,Mus musculus,4.2 mg/kg
same,inhibition,[4],inactive
